# From US20200405794A1, “PHARMACEUTICAL COMPOSITION FOR PREVENTING OR TREATING CANCER […] AND H[…] EFFECTIVE COMPONENTS” (priority 2018, published 2020)
# How the values were obtained:
# [1] = system: 4T1 cancer cell line-implanted mice; assay: 4T1 III: tumor size and survival with high-dose hydroxyurea; assay type: in vivo, Balb/c mice; details: 17 days; OTS-412 1×10^7 pfu intratumorally once; high-dose hydroxyurea 90 mg/kg intraperitoneally once a day
# [2] = system: NCI-H460 lung cancer cells-implanted mice; assay: Tumor size in human lung cancer cell (NCI-H460)-implanted mice; assay type: in vivo, Balb/c nu/nu mice; details: day 15; OTS-412 1×10^5 pfu twice (5 days apart); hydroxyurea 20 mg/kg once daily
# [3] = system: HCT-116 cancer cell line-implanted mice; assay: Tumor size in human colorectal cancer cell (HCT-116)-implanted mice; assay type: in vivo, Balb/c nu/nu mice; details: day 28; hydroxyurea only, once daily; n=5
# [4] = day 21; OTS-412 1×10^7 pfu twice or hydroxyurea 30 mg/kg, each alone; n=10
# [5] = system: 4T1 cancer cell line-implanted mice; assay: 4T1 I: tumor size in mouse breast cancer cell-implanted mice; assay type: in vivo, Balb/c mice; details: 10 days; OTS-412 1×10^7 pfu intratumorally once; hydroxyurea 30 mg/kg intraperitoneally once a day; n=4
substance,measurement,setting,value
hydroxyurea,tumor size increase,[1],~3.5 times
same,tumor size increase,[2],9 times
same,tumor size increase,[3],11 times
same,body weight loss,[4],around 10%
same,tumor size increase,[5],~5 times
